# From US20250215039A1, “NUCLEOSIDES FOR TREATING CANCER” (PRIMEFOUR THERAPEUTICS, INC., priority 2022, published 2025)
# Where two headings read alike, the source gives them in different places.
# Tested on: cancer cell lines
# Assay: Cancer cell proliferation activity (CellTiterGlo, 72 h)
# Type: cell-based
# Details: 72 h, 72 h, read-out: IC50 cell proliferation
# Outline: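 Readout is CellTiterGlo luminescence after 72 h compound exposure (0.1% DMSO final), started one day post-seeding, at 37 °C.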
smiles,measurement,setting,value
"Nc1nc(=O)n([C@H]2C[C@H](O)[C@@H](CO)O2)cc1F [compound 169, 4-amino-5-fluoro-1-((2R,4S,5R)-4-hydroxy-5-(hydroxymethyl)tetrahydrofuran-2-yl)pyrimidin-2(1H)-one]",IC50,5637 (bladder),1 nM
same,IC50,CLS439 (bladder),23 nM
same,IC50,HS729 (muscle),15 nM
same,IC50,J82 (bladder),5 nM
same,IC50,JAR (placenta),18 nM
same,IC50,MT3 (breast),4 nM
same,IC50,PANCI (pancreas),28 nM
same,IC50,PC3 (prostate),14 nM
same,IC50,RD (muscle),10 nM
same,IC50,T24 (bladder),5 nM
same,IC50,"Homo sapiens, 22Rv1, 72 h, 22RV1 (prostate)",2 nM
same,IC50,"Homo sapiens, 786-0, 72 h, 786O (kidney)",17 nM
same,IC50,"Homo sapiens, A204, 72 h, A204 (muscle)",51 nM
same,IC50,"Homo sapiens, A549, 72 h, A549 (lung)",14 nM
same,IC50,"Homo sapiens, A673, 72 h, A673 (bone)",3 nM
same,IC50,"Homo sapiens, A2780, 72 h, A2780 (ovary)",8 nM
same,IC50,"Homo sapiens, A-375, 72 h, A375 (skin)",7 nM
same,IC50,"Homo sapiens, A-431, 72 h, A431 (skin)",0.4 nM
same,IC50,"Homo sapiens, ACHN, ACHN (kidney)",3 nM
same,IC50,"Homo sapiens, ASPC1, 72 h, ASPC1 (pancreas)",8 nM
same,IC50,"Homo sapiens, BT-20, 72 h, BT20 (breast)",> 50000 nM
same,IC50,"Homo sapiens, BXPC-3, 72 h, BXPC3 (pancreas)",1 nM
same,IC50,"Homo sapiens, C-33-A, C33A (endometrial)",9 nM
same,IC50,"Homo sapiens, CAKI-1, 72 h, CAKI1 (kidney)",45 nM
same,IC50,"Homo sapiens, COLO 205, 72 h, COLO205 (colon)",1 nM
same,IC50,"Homo sapiens, COLO-678, 72 h, COLO678 (colon)",> 50000 nM
same,IC50,"Homo sapiens, Ca-Ski, CASKI (endometrial)",23 nM
same,IC50,"Homo sapiens, Caco-2, 72 h, CACO2 (colon)",> 50000 nM
same,IC50,"Homo sapiens, Calu-6, 72 h, CALU6 (lung)",29 nM
same,IC50,"Homo sapiens, DLD-1, 72 h, DLD1 (colon)",16 nM
same,IC50,"Homo sapiens, DU-145, 72 h, DU145 (prostate)",10 nM
same,IC50,"Homo sapiens, EFO-21, 72 h, EFO21 (ovary)",476 nM
same,IC50,"Homo sapiens, EJ-28, 72 h, EJ28 (bladder)",4 nM
same,IC50,"Homo sapiens, Granta-519, 72 h, GRANTA-519 (hematological)",9 nM
same,IC50,"Homo sapiens, HCT-15, 72 h, HCT15 (colon)",15 nM
same,IC50,"Homo sapiens, HCT-116, 72 h, HCT116 (colon)",23 nM
same,IC50,"Homo sapiens, HEK293, 72 h, HEK293 (kidney)",30 nM
same,IC50,"Homo sapiens, HL-60, 72 h, HL-60 (hematological)",8 nM
same,IC50,"Homo sapiens, HT-29, 72 h, HT29 (colon)",2 nM
same,IC50,"Homo sapiens, HT-1080, 72 h, HT1080 (connective tissue)",8 nM
same,IC50,"Homo sapiens, HeLa, HELA (endometrial)",1530 nM
same,IC50,"Homo sapiens, HepG2, 72 h, HEPG2 (liver)",2 nM
same,IC50,"Homo sapiens, Hs-578T, HS578T (breast)",> 50000 nM
same,IC50,"Homo sapiens, IGROV-1, 72 h, IGROV1 (ovary)",22 nM
same,IC50,"Homo sapiens, IMR-90, 72 h, IMR90 (lung)",> 50000 nM
same,IC50,"Homo sapiens, JEG-3, 72 h, JEG3 (placenta)",2 nM
same,IC50,"Homo sapiens, JIMT-1, 72 h, JIMT1 (breast)",34 nM
same,IC50,"Homo sapiens, K562, 72 h, K-562 (hematological)",94 nM
same,IC50,"Homo sapiens, Kasumi 1, 72 h, KASUMI-1 (hematological)",16 nM
same,IC50,"Homo sapiens, L-363, 72 h, L-363 (hematological)",3 nM
same,IC50,"Homo sapiens, LoVo, LOVO (colon)",2 nM
same,IC50,"Homo sapiens, MCF7, 72 h, MCF7 (breast)",2 nM
same,IC50,"Homo sapiens, MDA-MB-231, 72 h, MDAMB231 (breast)",381 nM
same,IC50,"Homo sapiens, MDA-MB-435, 72 h, MDAMB435 (skin)",17 nM
same,IC50,"Homo sapiens, MDA-MB-436, 72 h, MDAMB436 (breast)",3 nM
same,IC50,"Homo sapiens, MDA-MB-468, 72 h, MDAMB468 (breast)",18 nM
same,IC50,"Homo sapiens, MG-63, 72 h, MG63 (bone)",10 nM
same,IC50,"Homo sapiens, MHH-ES-1, 72 h, MHHES1 (bone)",5 nM
same,IC50,"Homo sapiens, MIA PaCa-2, 72 h, MIAPACA2 (pancreas)",16 nM
same,IC50,"Homo sapiens, MINO, MINO (hematological)",1 nM
same,IC50,"Homo sapiens, MV4-11, 72 h, MV4-11 (hematological)",1 nM
same,IC50,"Homo sapiens, NCI-H23, 72 h, NCI-H23 (lung)",8 nM
same,IC50,"Homo sapiens, NCI-H82, 72 h, NCIH82 (lung)",6 nM
same,IC50,"Homo sapiens, NCI-H292, 72 h, NCIH292 (lung)",19 nM
same,IC50,"Homo sapiens, NCI-H460, 72 h, NCIH460 (lung)",2 nM
same,IC50,"Homo sapiens, OVCAR-3, 72 h, OVCAR3 (ovary)",15 nM
same,IC50,"Homo sapiens, OVCAR-4, 72 h, OVCAR4 (ovary)",538 nM
same,IC50,"Homo sapiens, PLC-PRF-5, 72 h, PLCPRF5 (liver)",19 nM
same,IC50,"Homo sapiens, Panc1005, 72 h, PANC1005 (pancreas)",553 nM
same,IC50,"Homo sapiens, Ramos, RAMOS (hematological)",18 nM
same,IC50,"Homo sapiens, SAOS-2, 72 h, SAOS2 (bone)",3 nM
same,IC50,"Homo sapiens, SF-268, 72 h, SF268 (brain)",7 nM
same,IC50,"Homo sapiens, SF-295, 72 h, SF295 (brain)",7 nM
same,IC50,"Homo sapiens, SK-HEP1, 72 h, SKHEP1 (liver)",16 nM
same,IC50,"Homo sapiens, SK-LMS-1, 72 h, SKLMS1 (uterus)",11 nM
same,IC50,"Homo sapiens, SK-MEL-5, 72 h, SKMEL5 (skin; SKMELS [sic] in Table 9E)",29 nM
same,IC50,"Homo sapiens, SK-MEL-28, 72 h, SKMEL28 (skin)",112 nM
same,IC50,"Homo sapiens, SK-N-AS, SKNAS (brain)",> 50000 nM
same,IC50,"Homo sapiens, SK-N-SH, SKNSH (brain)",151 nM
same,IC50,"Homo sapiens, SK-OV-3, 72 h, SKOV3 (ovary)",28 nM
same,IC50,"Homo sapiens, SNB-75, 72 h, SNB75 (brain)",> 50000 nM
same,IC50,"Homo sapiens, SU-DHL10, 72 h, SU-DHL-10 (hematological)",226 nM
same,IC50,"Homo sapiens, SU-DHL-6, 72 h, SU-DHL-6 (hematological)",7 nM
same,IC50,"Homo sapiens, SW-620, 72 h, SW620 (colon)",2 nM
same,IC50,"Homo sapiens, TE-671, 72 h, TE671 (muscle)",8 nM
same,IC50,"Homo sapiens, THP-1, 72 h, THP-1 (hematological)",2 nM
same,IC50,"Homo sapiens, U2OS, U20S (bone; U2OS in Table 9E)",> 50000 nM
same,IC50,"Homo sapiens, U-87 MG, U87MG (brain)",> 50000 nM
same,IC50,"Homo sapiens, UMUC3, 72 h, UMUC3 (bladder)",7 nM
same,IC50,"Homo sapiens, UO-31, 72 h, UO31 (kidney)",31 nM
same,IC50,"Homo sapiens, WSU-NHL, WSU-NHL (hematological)",1 nM
same,IC50,"NCI-H358M, NCIH358M (lung)",6 nM
same,IC50,"PBMC, PBMC (hematological)",> 50000 nM
same,IC50,"RD-ES, RDES (bone)",7 nM
